Measurements reported in the NIST ThermoML archive (doi:10.1021/je400581e).

Experiments:
[1] = Liquid; for mass density: 298.15 K, 101.33 kPa, Vibrating tube method
[2] = refractive index (Na D-line) (dimensionless); conditions: 298.15 K; 101.33 kPa; Liquid; Standard Abbe refractometry

CC(C)CO [2-methyl-1-propanol]
Conditions	mass density [kg/m3]	refractive index
[1]	795.35	–
[2]	–	1.3927

[1], Ebulliometric method (Recirculating still)
Conditions	vapor or sublimation pressure [kPa]
347.84 K	26.2
351.07 K	30.19
359.54 K	43.66
362.99 K	50.45
368.56 K	63.25
372.09 K	72.73
372.56 K	74.66
375.06 K	81.58
378.19 K	91.8
380.73 K	101.32
382.25 K	106.5

CC(C)CCO [3-methylbutan-1-ol]
Conditions	mass density [kg/m3]	refractive index
[1]	806.21	–
[2]	–	1.4035

[1]
Conditions	vapor or sublimation pressure [kPa]
395.68 K	74.7
404.7 K	101.3
404.71 K	101.3

CC(C)O [propan-2-ol]
Conditions	mass density [kg/m3]	refractive index
[1]	779.36	–
[2]	–	1.374

[1], Ebulliometric method (Recirculating still)
Conditions	vapor or sublimation pressure [kPa]
325.2 K	26.21
328 K	30.2
335.73 K	43.66
338.88 K	50.43
343.99 K	63.24
347.25 K	72.74
347.86 K	74.65
349.98 K	81.59
352.84 K	91.8
355.37 K	101.3
356.56 K	106.52
